This note sets out measurements from ChEMBL document CHEMBL4196068, “Synthesis, molecular modeling and evaluation of α-glucosidase inhibition activity of 3,4-dihydroxy piperidines” (Eur J Med Chem, 2018).

Molecular target in the first assay: not listed separately
In words: Inhibition of Saccharomyces cerevisiae alpha-glucosidase using p-nitrophenyl-alpha-D-glucopyranoside as substrate preincubated for 15 to 20 mins followed by substrate addition measured after 45 to 60 mins by spectrophotometric analysis.
For the compound `O=C(CCc1ccc(O)cc1)Nc1ccc(CCC(=O)N2CC[C@H](O)[C@H](O)C2)cc1` (relative stereo), half-maximal inhibition (IC50) required 284 µM.
Same read-out and setting: the value for `Nc1ccc(CCC(=O)N2CC[C@@H](O)[C@@H](O)C2)cc1` (relative stereo) was 211 µM; that for `O=C(/C=C/c1ccsc1)N1CC[C@@H](O)[C@@H](O)C1` (relative stereo) was 888 µM; that for `O=C(/C=C/c1ccc(F)cc1)Nc1ccc(CCC(=O)N2CC[C@H](O)[C@H](O)C2)cc1` (relative stereo) was 349 µM.
Still for that read-out and setting: under `O=C(CCc1ccc(C(F)(F)F)cc1)Nc1ccc(CCC(=O)N2CC[C@H](O)[C@H](O)C2)cc1` (relative stereo) stands 479 µM.
Take `O=S(=O)(c1ccc(OC(F)(F)F)cc1)N1CC[C@@H](O)[C@@H](O)C1` (relative stereo): half-maximal inhibition (IC50) required 465 µM.
The same measure, in the same setting: under `O=C(CCc1ccc(NS(=O)(=O)c2ccc(F)cc2)cc1)N1CC[C@H](O)[C@H](O)C1` (relative stereo) stands 749 µM; under `CC(C)(C)OC(=O)Nc1ccc(CCC(=O)N2CC[C@@H](O)[C@@H](O)C2)cc1` (relative stereo), 663 µM.
Regarding `Cn1c(CCC(=O)N2CC[C@@H](O)[C@@H](O)C2)cc2ccccc21` (relative stereo), half-maximal inhibition (IC50) required 389 µM. This IC50 is about 1.7-fold lower than that of the compound before.
In the case of `O=C(CCc1ccc(O)cc1)N1CC[C@H](O)[C@@H](O)C1` (relative stereo), 422 µM corresponded to half-maximal inhibition (IC50).
As for `O=C(/C=C/c1ccc(C(F)(F)F)cc1)Nc1ccc(CCC(=O)N2CC[C@@H](O)[C@H](O)C2)cc1` (relative stereo), the IC50 – broadly, the point on the concentration scale where inhibition reaches its midpoint – worked out at 710 µM. Against the preceding compound, the IC50 is about 1.7-fold higher.
`OCCN1C[C@H](O)[C@@H](O)[C@H](O)[C@H]1CO` [MIGLITOL] showed a half-inhibitory concentration (IC50) of 462 µM. This IC50 lies about 1.5-fold lower than the previous one.
Same read-out and setting: under `O=C(CCc1ccsc1)N1CC[C@H](O)[C@@H](O)C1` (relative stereo) stands 152 µM; under `CC(C)(C)OC(=O)Nc1ccc(CCC(=O)Nc2ccc(CCC(=O)N3CC[C@@H](O)[C@H](O)C3)cc2)cc1` (relative stereo), 746 µM; under `O=C(/C=C/c1ccc(C(F)(F)F)cc1)Nc1ccc(CCC(=O)N2CC[C@H](O)[C@H](O)C2)cc1` (relative stereo), 890 µM.
Same read-out and setting: the value for `O=C(CCc1ccc(NS(=O)(=O)c2ccc(C(F)(F)F)cc2)cc1)N1CC[C@H](O)[C@H](O)C1` (relative stereo) was 103 µM; that for `O=C(CCc1ccc(O)cc1)Nc1ccc(CCC(=O)N2CC[C@@H](O)[C@H](O)C2)cc1` (relative stereo) was 488 µM.
On the same count and under the same terms, the value for `O=C(/C=C/c1ccc(O)cc1)N1CC[C@@H](O)[C@@H](O)C1` (relative stereo) was 442 µM; that for `O=C(CCc1ccccc1)N1CC[C@@H](O)[C@@H](O)C1` (relative stereo) was 994 µM.
The compound `O=C(CCc1ccc(N(S(=O)(=O)c2ccc(C(F)(F)F)cc2)S(=O)(=O)c2ccc(C(F)(F)F)cc2)cc1)N1CC[C@H](O)[C@H](O)C1` (relative stereo) yielded a half-inhibitory concentration (IC50) of 594 µM.
On the same count and under the same terms, under `OCC(CO)N[C@H]1C[C@](O)(CO)[C@@H](O)[C@H](O)[C@H]1O` [VOGLIBOSE] stands 325 µM; under `CC(C)(C)OC(=O)Nc1ccc(CCC(=O)Nc2ccc(CCC(=O)N3CC[C@H](O)[C@H](O)C3)cc2)cc1` (relative stereo), 383 µM.
Compound `O=C(/C=C/c1ccsc1)Nc1ccc(CCC(=O)N2CC[C@H](O)[C@H](O)C2)cc1` (relative stereo) came in with an IC50 of 667 µM.
Same read-out and setting: the value for `Nc1ccc(CCC(=O)Nc2ccc(CCC(=O)N3CC[C@@H](O)[C@H](O)C3)cc2)cc1` (relative stereo) was 384 µM; that for `Nc1ccc(CCC(=O)Nc2ccc(CCC(=O)N3CC[C@H](O)[C@H](O)C3)cc2)cc1` (relative stereo) was 247 µM; that for `O=C(CCc1ccc(O)cc1)N1CC[C@@H](O)[C@@H](O)C1` (relative stereo) was 292 µM.
Same read-out and setting: the value for `Nc1ccc(CCC(=O)N2CC[C@H](O)[C@@H](O)C2)cc1` (relative stereo) was 289 µM; that for `C[C@H]1O[C@H](O[C@H]2[C@H](O)[C@@H](O)[C@@H](O[C@H]3[C@H](O)[C@@H](O)C(O)O[C@@H]3CO)O[C@@H]2CO)[C@H](O)[C@@H](O)[C@@H]1N[C@H]1C=C(CO)[C@@H](O)[C@H](O)[C@H]1O` (stereo partly specified) [ACARBOSE] was 360 µM; that for `O=C(Nc1ccc(CCC(=O)N2CC[C@H](O)[C@H](O)C2)cc1)c1ccsc1` (relative stereo) was 267 µM.
`O=C(CCc1ccc(C(F)(F)F)cc1)N1CC[C@@H](O)[C@@H](O)C1` (relative stereo) displayed an IC50 of 742 µM.

The subject of the next assay is Saccharomyces cerevisiae. In words: Potency index, ratio of acarbose IC50 to compound IC50 for inhibition of Saccharomyces cerevisiae alpha-glucosidase.
As for `Nc1ccc(CCC(=O)N2CC[C@@H](O)[C@@H](O)C2)cc1` (relative stereo), the Ratio IC50 lay in the range of 2 to 3.
`O=C(CCc1ccc(NS(=O)(=O)c2ccc(C(F)(F)F)cc2)cc1)N1CC[C@H](O)[C@H](O)C1` (relative stereo): the Ratio IC50 fell in the range of 3 to 4.

Another assay concerns Saccharomyces cerevisiae. In words: Potency index, ratio of miglitol IC50 to compound IC50 for inhibition of Saccharomyces cerevisiae alpha-glucosidase.
In the case of `Nc1ccc(CCC(=O)N2CC[C@@H](O)[C@@H](O)C2)cc1` (relative stereo), the Ratio IC50 lay within 2 to 3.
Same read-out and setting: the value for `O=C(CCc1ccc(NS(=O)(=O)c2ccc(C(F)(F)F)cc2)cc1)N1CC[C@H](O)[C@H](O)C1` (relative stereo) was 3 to 4.

The next assay has as its system Saccharomyces cerevisiae. In words: Potency index, ratio of voglibose IC50 to compound IC50 for inhibition of Saccharomyces cerevisiae alpha-glucosidase.
On to `Nc1ccc(CCC(=O)N2CC[C@@H](O)[C@@H](O)C2)cc1` (relative stereo), for which the Ratio IC50 was in the range of 2 to 3.
On the same count and under the same terms, the value for `O=C(CCc1ccc(NS(=O)(=O)c2ccc(C(F)(F)F)cc2)cc1)N1CC[C@H](O)[C@H](O)C1` (relative stereo) was 3 to 4.
